In patent US12642791B2, “Inhibitors of lysyl oxidases” (UNIVERSITY OF SOUTH CAROLINA, priority 2021, dated 2026):
pIC50: −log10 of the molar value. Where two headings read alike, the source gives them in different places.

Key:
recombinant LOX = target: T1, recombinant LOX (Homo sapiens, UniProt P28300); experiment: Lysyl oxidase activity assay with recombinant LOX protein; assay type: biochemical; conditions: for inhibition of recombinant LOX: 10 μM compound; for selectivity LOX versus LOXL2 / LOX family: recombinant proteins
T1 construct: purchased Novus, USA
T1 sequence (P28300 169-417): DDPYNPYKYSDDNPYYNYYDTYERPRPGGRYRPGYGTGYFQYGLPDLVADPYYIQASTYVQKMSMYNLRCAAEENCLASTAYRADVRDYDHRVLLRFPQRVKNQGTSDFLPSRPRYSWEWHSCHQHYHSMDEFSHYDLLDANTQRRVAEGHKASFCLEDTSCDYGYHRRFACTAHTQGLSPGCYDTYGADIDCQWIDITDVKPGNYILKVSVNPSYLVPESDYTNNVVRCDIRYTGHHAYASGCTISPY
Method: For in vitro lysyl oxidase activity (for recombinant proteins), Lysyl Oxidase Activity kit (Biovision, USA) was used according to manufacturer's instructions. Briefly, 1 μg of LOX (Novus, USA), 0.2 μg of LOXL1 (Abcam, USA) and 0.1 μg of LOXL2 (Abcam, USA) were incubated with the reagent mix in the presence of inhibitors or vehicle. Lysyl oxidase activity of the wells was measured in multimode reader (every 30 sec, total 2.5 hours) in […] mode.

[1] = test system: MDA-MB-231 cells embedded in collagen I; experiment: ECM crosslinking by collagen and fibronectin immunofluorescence staining; assay type: cell-based, human
Method: FIG. 31. […] A. Inhibition of LOX activity in MDA-MB-231 cells treated with 5 μM of the LOX inhibitors. B. Doxorubicin sensitization with 6232 and its analogs, 6403 and 6415, in 3D collagen-I culture. C. Collagen and fibronectin staining of vehicle or 6232 or 6403 or 6415-treated MDA-MB-231 cells embedded in collagen I. BAPN is used as a positive control.
Immunofluorescence staining of cells was done in μ-Slide 8-well glass bottom chambers (Ibidi, Germany). Cells were fixed with 4% paraformaldehyde for 20 min, permeabilized with 0.5% Triton X-100 for 10 min and blocked in 5% BSA-PBS. Samples were incubated with primary (Collagen I, Fibronectin, F-actin, a-SMA) and secondary Alexa Fluor 647 or 488-labeled antibodies for 1.5 hours at room temperature. Cells were also counterstained with DAPI for 5 min. Images were acquired using ZEN 2012 SP5 (Black) LSM 700 (Carl Zeiss, DE).

[2] = test system: cellular lysyl oxidase (LOX) activity, MDA-MB-231 cells; experiment: Cell-based lysyl oxidase activity assay (Abcam kit); parameters: species or system human
Description: As the available LOX inhibitors are either not very potent or have toxicity, the inventors developed a robust screening pipeline shown in FIG. 28 to identify potent and safe LOX-specific and pan-LOX inhibitors. Briefly, a high-throughput cell-based LOX activity (Abcam) screen (HTS) was done for more than 5,000 drug-like compounds from the EXPRESS-Pick diversified library (4,480 molecules, ChemBridge) and Tocriscreen library of bioactive compounds (1,280 compounds, Tocris), each at a single concentration of 10 μM. […] The toxic molecules were counter screened with cell cytotoxicity assay and filtered out.
FIGS. 34. […] IC50 for cellular lysyl oxidase activity upon treatment of MDA-MB-231 cells with different LOX inhibitors. uM=microM.
(§1) For cell-based lysyl oxidase activity, fluorometric Lysly Oxidase Activity Assay Kit (Abcam, USA) was used according to manufacturer's instructions. Briefly, after the treatment, 50 μl of supernatant from each well was incubated with reagent mix and fluorescence measured in multimode-reader at Ex/Em=540/590 nm wavelength.

HFF cells = experiment: Fibrosis assay (TGF-beta induced, alpha-SMA and fibronectin staining); assay type: cell-based, human; conditions: 10 uM compound, 1 hour pretreatment, TGF-β 48 hours
Method: FIG. 40. […] 24 hours serum-starved HFF cells were pretreated with inhibitors 1 hours. Then, fibrosis was induced by […] of TGF-β for 48 hours in HFF cells. ALK5 (10 μM) inhibitor is used as a negative control. LOX inhibitors 6232, 6403 and 6415 were used at 10 uM concentration. HFF cells were stained with alpha-SMA and fibronectin primary antibodies. Nucleus of the cells was labeled with DAPI.
Human foreskin fibroblasts (HFF), see Li, M. et al. Icaritin inhibits skin fibrosis through regulating AMPK and Wnt/β-catenin signaling. Cell Biochemistry and Biophysics 79, 231-238 (2021), cells were seeded into μ-Slide 8-well glass bottom chambers (Ibidi, Germany). Next day, media of the cells were replaced with 0.5% FBS contain media and incubated with 24 hours. Then, cells were pretreated either with ALK5 inhibitor (Sellekchem, USA) or LOX inhibitors for 1 hour and cells were incubated with 10 ng/ml of TGF-beta (R&D Biosystems, USA) for 48 hours. Staining of the markers followed the same procedure described in the Immunofluorescence section above.

[3] = test system: cellular lysyl oxidase activity, ACHN; experiment: Cell-based LOX activity in kidney cancer cell line; parameters: species or system human; conditions: uM range
Method: FIG. 38. Dose dependent inhibition of cellular LOX activity and growth inhibition in 3D upon treatment with 6232 and its analogs, 6403 and 6415.in ACHN cancer cell line. Inhibition of cell-based LOX activity in ACHN (A) and growth inhibition in collagen:matrigel (1:1) culture (B) cancer cell lines upon treatment with LOX inhibitors 6232, 6403 and 6415 (uM range). BAPN is used as a positive control (mM range) in 3D cell viability assay. Growth inhibition was measured by using 3D Cell Titer Glo kit.
as §1

[4] = test system: cellular LOX activity, PANC1; experiment: Cell-based LOX activity in pancreatic cancer cell line; parameters: species or system human
Method: (§2) FIG. 39. Inhibition of cellular LOX activity in pancreatic and kidney cancer cell lines. Inhibition of cellular LOX activity upon the treatment with BAPN, 6232, 6403 and 6415 in kidney cell line Caki-1 (A) and pancreatic cancer cell lines Mia-Paca-2 (B) and PANC1 (C).
as §1

[5] = test system: cellular LOX activity, Mia-Paca-2; experiment: as above; parameters: species or system human
Method: as §2, §1

MDA-MB-231 cells = experiment: Migration assay (RTCA CIM plate); assay type: cell-based, human; conditions: 20 μM, 48 hours
Method: FIG. 37. LOX inhibitors, 6232, 6403 and 6415, reduced the migration capacity of the TNBC cell lines. RTCA-CIM plate used to measure the real-time migration of MDA-MB-231 cells upon treatment with 20 μM of 6232, 6403 and 6415 for 48 hours. (* p<0.05; ** p<0.01)
RTCA CIM Plate was used to assess the migration capacity of the cells upon LOX inhibitor treatment according to manufacturer's instructions. Briefly, 160 μl of 10% FBS containing media was added into each bottom chamber/50 μl of FBS free media into upper chamber and incubated 1 hour at 37° C. After the background measurement, 5×10^4 cells were seeded in FBS-free media into upper chamber in the presence of LOX inhibitors or vehicle. After the 30 min incubation at RT, real time cell migration was recorded for 48 hours.

[6] = read-out: cellular LOX activity

Compound	inhibition of recombinant LOX (recombinant LOX)	ECM crosslinking (collagen and fibronectin staining) [1]	cellular lysyl oxidase inhibition compared to BAPN [2]	TGF-β-induced fibrosis (alpha-SMA, fibronectin staining) (HFF cells)	cellular lysyl oxidase activity inhibition [3]	cellular LOX activity [4]	cellular LOX activity [5]	migration capacity (MDA-MB-231 cells)	inhibition of recombinant LOX activity (recombinant LOX; 5 and 10 uM)	selectivity LOX versus LOXL2 / LOX family (recombinant LOX)	selectivity LOX versus LOXL2 / LOX family (recombinant LOX; listed as 4-((2′-amino-4′-methyl-[4,5′-bithiazol]-2-yl)(methyl)amino)phenol)	pIC50 [2, 6]	pIC50 ([2]; read-out: IC50 for cellular lysyl oxidase inhibition)
Cc1nc(N)sc1-c1csc(Nc2ccc([N+](=O)[O-])cc2)n1 [compound 6232, 4-methyl-5-[2-(4-nitroanilino)thiazol-4-yl]thiazol-2-amine]	strongly inhibit	decrease in ECM crosslinking	more potent	inhibited the TGF-β-induced fibrosis	dose dependent cellular lysyl oxidase activity inhibition	inhibited cellular LOX activity	inhibited cellular LOX activity	inhibited the migration capacity					
Cc1nc(N)sc1-c1csc(N(C)c2ccc(O)cc2)n1 [compound 6415, 4-[[4-(2-amino-4-methyl-thiazol-5-yl)thiazol-2-yl]-methyl-amino]phenol]	inhibits both LOX and LOXL2 recombinant proteins	decrease in ECM crosslinking	more potent	inhibited the TGF-β-induced fibrosis	dose dependent cellular lysyl oxidase activity inhibition	inhibited cellular LOX activity	inhibited cellular LOX activity	inhibited the migration capacity	inhibited the activity of LOX and LOXL2 recombinant proteins	more like a LOX/LOXL2 inhibitor	non-selective inhibitor of the LOX family of enzymes	5.46	
CC(=O)Nc1ccc(Nc2nc(-c3sc(N)nc3C)cs2)cc1 [compound 6403, N-[4-[[4-(2-amino-4-methyl-thiazol-5-yl)thiazol-2-yl]amino]phenyl]acetamide]	inhibits LOX recombinant protein	decrease in ECM crosslinking	more potent	inhibited the TGF-β-induced fibrosis	dose dependent cellular lysyl oxidase activity inhibition	inhibited cellular LOX activity	inhibited cellular LOX activity	inhibited the migration capacity		more potent and selective inhibitor against LOX compared to LOXL2		5.89	5.89
